One may read the IC50 as the concentration needed to halve the response being measured.

Holding throughout (assay type): functional, cell-based
One test concerns MDA-MB-231. Nature of the test: Antiproliferation activity against human MDA-MB-231 cells assessed as reduction in cell viability after 72 hrs by WST-8 assay. Conditions: MDA-MB-231, 72 h. In general terms: Tetrazolium dyes change colour on reduction, which living cells bring about.
A further test concerns HeLa. Nature of the test: Antiproliferation activity against human HeLa cells assessed as reduction in cell viability after 72 hrs by WST-8 assay.
The test system of another test is A549. The test can be described thus: Antiproliferative activity against human A549 cells assessed as reduction in cell viability after 72 hrs by WST-8 assay. The note with it: A549, 72 h.

On to `C=C[C@]1(C)C[C@H](OC(=O)C(=C)COC(C)=O)[C@H]2C(=C)C(=O)O[C@@H]2[C@H]1C(=C)C=O`, for which the figures for the IC50 in the test on MDA-MB-231, in the test with HeLa and with A549 were 3200 nM, 4160 nM and 2950 nM, respectively.

Take `C=C[C@@]12COC(=O)C(=C)[C@@H]1[C@H]1OC(=O)C(=C)[C@@H]1[C@@H](O)C2` [VERNOLEPIN]: the IC50 amounted to 1900 nM in the test with MDA-MB-231, 2200 nM with HeLa and 16900 nM in the test with A549.

Take `C=C[C@@]12COC(=O)C(=C)[C@@H]1[C@H]1OC(=O)C(=C)[C@@H]1[C@@H](OC(=O)C(=C)COC(C)=O)C2`: the IC50 with MDA-MB-231 was 1350 nM; in the test on HeLa it was 2160 nM; in the test on A549 it was 1520 nM.

For the compound `C=C[C@@]12COC(=O)C(=C)[C@@H]1[C@H]1OC(=O)C(=C)[C@@H]1[C@@H](OC(=O)C(=C)CO)C2` [VERNODALIN], the IC50 came to 300 nM in the test with MDA-MB-231, 200 nM with HeLa and 400 nM in the test with A549.

For the compound `C=C(CO)C(=O)O[C@H]1CC(=C)[C@@H]2CC[C@@H](CO)[C@@H]2[C@H]2OC(=O)C(=C)[C@@H]21`, the IC50 in the test with MDA-MB-231 was determined as 250 nM; in the test on HeLa, 100 nM; in the test on A549 it was 1000 nM.

Turning to `C=C[C@]1(C)C[C@H](OC(=O)C(=C)CO)[C@H]2C(=C)C(=O)O[C@@H]2[C@H]1C(=C)C=O`, the IC50 in the test on MDA-MB-231 turned out to be 350 nM; in the test on HeLa, 400 nM; in the test on A549, 700 nM.

As to `C=C[C@@]12COC(=O)C(=C)[C@@H]1[C@H]1OC(=O)C(=C)[C@@H]1[C@@H](OC(=O)C(=C)COCC)C2`, the IC50 with MDA-MB-231 stood at 9500 nM; in the test on HeLa, 16300 nM; with A549, 21600 nM.
